The source of these data is ChEMBL document CHEMBL1155000, “Discovery of a novel series of Notch-sparing gamma-secretase inhibitors” (Bioorg Med Chem Lett, 2008).

The nature of assay [1]: Inhibition of gamma-secretase expressed in CHO cells expressing wild type human recombinant APP assessed as reduction in amyloid beta40 production.
Assay [2] in a line: Selectivity ratio of EC50 for gamma-secretase to EC50 for mouse notch.
Assay [3] in a line: (§1) Inhibition of mouse notch expressed in CHO cells assessed as transactivation of soluble alkaline phosphatase reporter system. The format is cell-based.
Assay [4] has as its system CHO. Described as §1. The format is cell-based.

As usually defined, the EC50 is the concentration needed to bring the measured effect to its halfway point. Regarding `CC[C@@H](CO)NS(=O)(=O)c1ccc(Cl)cc1`, the EC50 in assay [1] is more than 100 µM.
`CC[C@H](C)[C@@H](CO)NS(=O)(=O)c1cccc(Cl)c1`: the EC50 in assay [1] is 18.3 µM.
As to `CC[C@H](C)[C@@H](CO)NS(=O)(=O)c1cc(Cl)cc(Cl)c1`, in assay [1], the EC50 is 23.5 µM.
Consider `C[C@H](c1ccc(F)cc1CCCC(=O)O)N(c1cc(F)ccc1F)S(=O)(=O)c1ccc(Cl)cc1`, for which the Ratio EC50 in assay [2] is 15. In assay [1], the EC50 was found to be 0.007 µM.
As for `O=S(=O)(N[C@H](CO)c1ccccc1)c1ccc(Cl)cc1`, in assay [1], the EC50 was found to be 68.8 µM.
Take `CC[C@H](C)[C@@H](CO)NS(=O)(=O)c1cc(Cl)ccc1Cl`: the EC50 in assay [1] turned out to be 54.8 µM.
Same read-out and setting: the same measure for `CC[C@H](C)[C@@H](CO)NS(=O)(=O)c1ccc(F)cc1`: 4.24 µM.
Take `CC[C@H](C)[C@@H](CO)NC(=O)c1ccc(Cl)cc1`: the EC50 in assay [1] is more than 100 µM.
Consider `CC(C)(C)[C@@H](CO)NS(=O)(=O)c1ccc(Cl)cc1`, for which, in assay [1], the EC50 was determined as 29.1 µM.
For the compound `CC[C@H](C)[C@@H](CO)NS(=O)(=O)c1ccc(C#N)cc1`, the EC50 in assay [1] was more than 100 µM.
The same measure, in the same setting: the same measure for `CC[C@@H](C)[C@@H](CO)NS(=O)(=O)c1ccc(Cl)cc1`: 0.758 µM; for `CC[C@H](C)[C@@H](CO)NS(=O)(=O)c1ccc(Cl)c(F)c1`: 7.84 µM.
For the compound `CC[C@H](C)[C@@H](CO)NS(=O)(=O)c1ccc(Cl)c(Cl)c1`, the EC50 in assay [1] amounted to 37 µM.
Regarding `CC(C)[C@H](O)C(=O)N[C@@H](C)C(=O)N[C@@H]1C(=O)N(C)CCc2ccccc21`, the values for the EC50 in assay [3] and in assay [1] were 0.063 µM and 0.028 µM, respectively.
For the compound `CC[C@H](C)[C@@H](CO)NS(=O)(=O)c1ccc(Br)cc1`, the 50% effective concentration (EC50) in assay [3] amounted to 20 µM; in assay [1], 2.21 µM.
`CC(C)[C@@H](CO)NS(=O)(=O)c1ccc(Cl)cc1`: in assay [1], the EC50 stood at 4.58 µM.
As for `CC[C@H](C)[C@@H](CO)NS(=O)(=O)c1ccc(Cl)cc1`, the EC50 came out at 20 µM in assay [3] and 5.45 µM in assay [1].
With `CCC(CC)[C@@H](CO)NS(=O)(=O)c1ccc(Cl)cc1`, the figures for the EC50 in assay [3] and in assay [1] were 4.09 µM and 0.294 µM, respectively. For the same compound, the Ratio EC50 in assay [2] is 13.9.
Take `CC[C@H](C)[C@@H](CO)NS(=O)(=O)c1ccccc1`: in assay [1], the EC50 was determined as 4.15 µM.
Regarding `CC[C@H](C)[C@@H](CO)NC(=O)Cc1ccc(Cl)cc1`, the EC50 in assay [1] is more than 100 µM.
On the same count and under the same terms, the value for `O=S(=O)(N[C@H](CO)C1CCCCC1)c1ccc(Cl)cc1` was 1.12 µM.
For `CC[C@H](C)[C@@H](CO)NS(=O)(=O)c1ccc(C(C)=O)cc1`, the EC50 in assay [1] came out at 6.02 µM.
Turning to `CC[C@H](C)[C@@H](CO)NCc1ccc(Cl)cc1`, in assay [1], the EC50 was more than 100 µM.
As for `CC[C@H](C)[C@H](NS(=O)(=O)c1ccc(Cl)cc1)C(C)(C)O`, in assay [1], the 50% effective concentration (EC50) was more than 100 µM.
Still for that read-out and setting: the same measure for `CC[C@H](C)[C@@H](CO)NS(=O)(=O)c1ccc(C(F)(F)F)cc1`: 13.1 µM.
As for `C[C@@H](CO)NS(=O)(=O)c1ccc(Cl)cc1`, the EC50 in assay [1] was more than 100 µM.
Take `CC[C@H](C)[C@@H](CO)NC(=O)Nc1ccc(Cl)cc1`: the EC50 in assay [1] is 47.3 µM.
On the same count and under the same terms, the value for `CC[C@H](C)[C@@H](CO)NS(=O)(=O)Nc1ccc(Cl)cc1` was more than 30 µM; that for `CC[C@H](C)[C@@H](CO)NS(=O)(=O)c1ccc(S(C)(=O)=O)cc1` was more than 100 µM.
Regarding `CC[C@H](C)[C@@H](CO)NS(=O)(=O)c1ccc(OC(F)(F)F)cc1`, in assay [1], the EC50 turned out to be 23.5 µM.
Consider `CCOC(=O)N1CCC(c2ccccc2)(S(=O)(=O)c2ccc(Cl)cc2)CC1`, for which the values for the EC50 in assay [3] and in assay [1] were 0.746 µM and 12.2 µM, respectively. Also, the Ratio EC50 in assay [2] worked out at 8.8.
Consider `CC[C@H](C)[C@H](NS(=O)(=O)c1ccc(Cl)cc1)C(C)O` (some centres undefined), for which the EC50 in assay [1] worked out at 49.3 µM.
Consider `CCCNC(=O)OC[C@@H](C)N(c1cc(Cl)ccc1CO)S(=O)(=O)c1ccc(Cl)cc1`, for which, in assay [1], the EC50 is 0.085 µM.
The same measure, in the same setting: the same measure for `CC(C)C[C@@H](CO)NS(=O)(=O)c1ccc(Cl)cc1`: 15.3 µM; for `CC[C@H](C)[C@@H](CO)NS(=O)(=O)c1ccc(C)cc1`: 14.3 µM.
`C[C@H](NC(=O)[C@@H](O)c1cc(F)cc(F)c1)C(=O)N[C@@H]1C(=O)N(C)N=Cc2ccccc21`: in assay [4], the Ratio EC50 was determined as 0.5. Further, the EC50 in assay [1] is 0.0003 µM.
For the compound `CC[C@H](C)[C@@H](CO)NS(=O)(=O)c1ccccc1Cl`, in assay [1], the concentration for a half-maximal effect (EC50) amounted to 56.6 µM.
Regarding `CC[C@H](C)[C@@H](CO)NS(=O)(=O)c1cccc(Cl)c1Cl`, the EC50 in assay [1] is 4.27 µM.
`CC[C@H](C)[C@@H](CO)NS(=O)(=O)c1ccc([N+](=O)[O-])cc1`: the EC50 in assay [1] amounted to 20.9 µM.
As for `CC[C@H](C)[C@H](NS(=O)(=O)c1ccc(Cl)cc1)C(=O)O`, in assay [1], the EC50 is more than 100 µM.
